Results: ChEMBL document CHEMBL4879554, “Data for DCP probe GNE-2256” (2021)
pIC50: −log10 of the molar value. Active and inactive are the calls of the source. No cut-off for these calls is given here.

Experiments:
[1] = target: Mitogen-activated protein kinase 13 (Homo sapiens) (UniProt O15264); assay: p38_delta Kinase panel; conditions: Compound concentration 1.0 uM
[2] = target: Fibroblast growth factor receptor 4 (Homo sapiens) (UniProt P22455); assay: FGFR4 Kinase panel; conditions: Compound concentration 1.0 uM
Sequence of Fibroblast growth factor receptor 4 (Homo sapiens) (P22455 22-802 limits assumed): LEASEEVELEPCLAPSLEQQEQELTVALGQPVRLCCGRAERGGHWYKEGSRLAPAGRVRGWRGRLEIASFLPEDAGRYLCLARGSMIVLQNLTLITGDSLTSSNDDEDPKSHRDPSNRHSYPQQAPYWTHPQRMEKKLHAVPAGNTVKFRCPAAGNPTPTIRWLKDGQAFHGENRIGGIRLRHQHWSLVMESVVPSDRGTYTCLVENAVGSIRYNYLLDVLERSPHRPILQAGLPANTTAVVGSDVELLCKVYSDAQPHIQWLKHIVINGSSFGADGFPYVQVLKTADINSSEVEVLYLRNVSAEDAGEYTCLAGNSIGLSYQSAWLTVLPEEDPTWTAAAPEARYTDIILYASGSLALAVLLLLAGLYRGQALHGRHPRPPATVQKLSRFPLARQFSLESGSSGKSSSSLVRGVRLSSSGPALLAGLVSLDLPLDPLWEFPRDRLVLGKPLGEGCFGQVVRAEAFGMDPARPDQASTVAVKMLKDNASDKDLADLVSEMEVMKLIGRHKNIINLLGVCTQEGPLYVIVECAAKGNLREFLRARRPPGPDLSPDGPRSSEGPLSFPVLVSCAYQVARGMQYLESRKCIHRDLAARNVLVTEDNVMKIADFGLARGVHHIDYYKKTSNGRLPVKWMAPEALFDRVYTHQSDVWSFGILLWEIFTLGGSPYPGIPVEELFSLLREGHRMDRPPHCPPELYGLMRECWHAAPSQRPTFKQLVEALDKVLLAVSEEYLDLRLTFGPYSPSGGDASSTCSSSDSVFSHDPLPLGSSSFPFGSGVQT

[3] = target: 5'-AMP-activated protein kinase catalytic subunit alpha-1 (Homo sapiens) (UniProt Q13131); assay: PRKAA1 Kinase panel; conditions: Compound concentration 1.0 uM
[4] = target: CDK8/Cyclin C (Homo sapiens) (UniProt P49336+P24863); assay: CDK8/cyclinC Kinase panel; assay type: protein-complex assay; conditions: Compound concentration 1.0 uM
[5] = target: Serine/threonine-protein kinase Nek6 (Homo sapiens) (UniProt Q9HC98); assay: NEK6 Kinase panel; conditions: Compound concentration 1.0 uM
Sequence of Serine/threonine-protein kinase Nek6 (Homo sapiens) (Q9HC98 whole entry): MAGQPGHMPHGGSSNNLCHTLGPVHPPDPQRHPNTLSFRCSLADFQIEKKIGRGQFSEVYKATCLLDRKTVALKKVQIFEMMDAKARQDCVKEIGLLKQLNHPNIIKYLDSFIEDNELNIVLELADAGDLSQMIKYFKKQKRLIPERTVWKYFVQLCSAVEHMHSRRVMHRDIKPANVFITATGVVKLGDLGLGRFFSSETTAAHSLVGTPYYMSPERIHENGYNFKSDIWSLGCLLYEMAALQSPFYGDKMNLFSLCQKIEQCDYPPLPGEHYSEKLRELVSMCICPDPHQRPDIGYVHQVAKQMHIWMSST

[6] = target: Tyrosine-protein kinase Blk (Homo sapiens) (UniProt P51451); assay: Blk Kinase panel; conditions: Compound concentration 1.0 uM
[7] = target: Serine/threonine-protein kinase Nek9 (Homo sapiens) (UniProt Q8TD19); assay: NEK9 Kinase panel; conditions: Compound concentration 1.0 uM
[8] = target: D(2) dopamine receptor (Homo sapiens) (UniProt P14416); conditions: Compound concentration 10.0 uM
[9] = target: Serine/threonine-protein kinase 17A (Homo sapiens) (UniProt Q9UEE5); assay: DRAK1 Kinase panel; conditions: Compound concentration 1.0 uM
[10] = target: Glycogen synthase kinase-3 beta (Homo sapiens) (UniProt P49841); assay: GSK3_beta Kinase panel; conditions: Compound concentration 1.0 uM
[11] = target: Kappa-type opioid receptor (Homo sapiens) (UniProt P41145); conditions: Compound concentration 10.0 uM
[12] = target: Proto-oncogene tyrosine-protein kinase Src (Homo sapiens) (UniProt P12931); assay: Src Kinase panel; conditions: Compound concentration 1.0 uM
[13] = target: Leucine-rich repeat serine/threonine-protein kinase 2 (Homo sapiens) (UniProt Q5S007); assay: LRRK2 Kinase panel; conditions: Compound concentration 1.0 uM
[14] = target: Ephrin type-A receptor 8 (Homo sapiens) (UniProt P29322); assay: EphA8 Kinase panel; conditions: Compound concentration 1.0 uM
[15] = target: Serine/threonine-protein kinase 16 (Homo sapiens) (UniProt O75716); assay: STK16 Kinase panel; conditions: Compound concentration 1.0 uM
[16] = target: Maternal embryonic leucine zipper kinase (Homo sapiens) (UniProt Q14680); assay: MELK Kinase panel; conditions: Compound concentration 1.0 uM
[17] = target: Tyrosine-protein kinase CSK (Homo sapiens) (UniProt P41240); assay: CSK Kinase panel; conditions: Compound concentration 1.0 uM
[18] = target: Mitogen-activated protein kinase 14 (Homo sapiens) (UniProt Q16539); assay: p38_alpha(direct) Kinase panel; conditions: Compound concentration 1.0 uM
Sequence of Mitogen-activated protein kinase 14 (Homo sapiens) (Q16539 whole entry, the tested form may be a part): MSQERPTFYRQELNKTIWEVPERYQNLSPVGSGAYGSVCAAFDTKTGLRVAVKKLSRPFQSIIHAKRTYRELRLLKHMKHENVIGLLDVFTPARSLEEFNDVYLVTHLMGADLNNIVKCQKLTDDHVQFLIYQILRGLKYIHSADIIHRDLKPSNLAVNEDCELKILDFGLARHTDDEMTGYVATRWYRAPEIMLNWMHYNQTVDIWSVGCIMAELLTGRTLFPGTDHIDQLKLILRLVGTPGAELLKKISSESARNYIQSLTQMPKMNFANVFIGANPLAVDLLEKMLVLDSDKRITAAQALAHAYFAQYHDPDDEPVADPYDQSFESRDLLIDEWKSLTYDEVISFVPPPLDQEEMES

[19] = target: Epithelial discoidin domain-containing receptor 1 (Homo sapiens) (UniProt Q08345); assay: DDR1 Kinase panel; conditions: Compound concentration 1.0 uM
Sequence of Epithelial discoidin domain-containing receptor 1 (Homo sapiens) (Q08345 whole entry, the tested form may be a part): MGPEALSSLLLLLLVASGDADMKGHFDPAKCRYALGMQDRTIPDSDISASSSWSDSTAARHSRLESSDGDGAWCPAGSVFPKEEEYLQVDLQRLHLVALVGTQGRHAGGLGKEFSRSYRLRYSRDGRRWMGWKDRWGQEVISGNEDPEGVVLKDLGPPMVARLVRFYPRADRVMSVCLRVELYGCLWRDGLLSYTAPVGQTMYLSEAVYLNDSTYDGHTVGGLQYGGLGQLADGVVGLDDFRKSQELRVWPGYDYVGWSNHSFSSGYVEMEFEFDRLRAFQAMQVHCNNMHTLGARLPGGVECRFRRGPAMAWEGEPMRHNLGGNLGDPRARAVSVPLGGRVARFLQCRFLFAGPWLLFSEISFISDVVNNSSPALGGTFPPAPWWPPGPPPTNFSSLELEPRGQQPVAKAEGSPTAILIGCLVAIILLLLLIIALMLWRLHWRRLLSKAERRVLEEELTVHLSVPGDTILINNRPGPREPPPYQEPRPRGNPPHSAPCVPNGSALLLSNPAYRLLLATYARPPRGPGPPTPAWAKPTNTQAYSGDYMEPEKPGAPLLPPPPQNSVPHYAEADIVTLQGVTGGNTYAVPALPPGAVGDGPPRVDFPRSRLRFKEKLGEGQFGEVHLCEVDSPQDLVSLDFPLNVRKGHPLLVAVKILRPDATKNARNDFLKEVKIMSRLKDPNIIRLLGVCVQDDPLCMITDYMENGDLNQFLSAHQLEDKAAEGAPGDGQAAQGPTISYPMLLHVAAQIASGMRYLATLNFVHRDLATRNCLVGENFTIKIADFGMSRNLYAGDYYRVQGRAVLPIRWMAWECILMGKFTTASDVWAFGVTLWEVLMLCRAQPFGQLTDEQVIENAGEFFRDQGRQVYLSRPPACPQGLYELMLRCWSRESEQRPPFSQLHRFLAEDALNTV

[20] = target: 5-hydroxytryptamine receptor 1B (Homo sapiens) (UniProt P28222); conditions: Compound concentration 10.0 uM
[21] = target: 5-hydroxytryptamine receptor 2A (Homo sapiens) (UniProt P28223); conditions: Compound concentration 10.0 uM
[22] = target: Inhibitor of nuclear factor kappa-B kinase subunit epsilon (Homo sapiens) (UniProt Q14164); assay: IKK_epsilon Kinase panel; conditions: Compound concentration 1.0 uM
[23] = target: Misshapen-like kinase 1 (Homo sapiens, UniProt Q8N4C8); assay: Mink1 Kinase panel
[24] = target: Ribosomal protein S6 kinase alpha-5 (Homo sapiens) (UniProt O75582); assay: MSK1 Kinase panel; conditions: Compound concentration 1.0 uM
Sequence of Ribosomal protein S6 kinase alpha-5 (Homo sapiens) (O75582 whole entry, looked up): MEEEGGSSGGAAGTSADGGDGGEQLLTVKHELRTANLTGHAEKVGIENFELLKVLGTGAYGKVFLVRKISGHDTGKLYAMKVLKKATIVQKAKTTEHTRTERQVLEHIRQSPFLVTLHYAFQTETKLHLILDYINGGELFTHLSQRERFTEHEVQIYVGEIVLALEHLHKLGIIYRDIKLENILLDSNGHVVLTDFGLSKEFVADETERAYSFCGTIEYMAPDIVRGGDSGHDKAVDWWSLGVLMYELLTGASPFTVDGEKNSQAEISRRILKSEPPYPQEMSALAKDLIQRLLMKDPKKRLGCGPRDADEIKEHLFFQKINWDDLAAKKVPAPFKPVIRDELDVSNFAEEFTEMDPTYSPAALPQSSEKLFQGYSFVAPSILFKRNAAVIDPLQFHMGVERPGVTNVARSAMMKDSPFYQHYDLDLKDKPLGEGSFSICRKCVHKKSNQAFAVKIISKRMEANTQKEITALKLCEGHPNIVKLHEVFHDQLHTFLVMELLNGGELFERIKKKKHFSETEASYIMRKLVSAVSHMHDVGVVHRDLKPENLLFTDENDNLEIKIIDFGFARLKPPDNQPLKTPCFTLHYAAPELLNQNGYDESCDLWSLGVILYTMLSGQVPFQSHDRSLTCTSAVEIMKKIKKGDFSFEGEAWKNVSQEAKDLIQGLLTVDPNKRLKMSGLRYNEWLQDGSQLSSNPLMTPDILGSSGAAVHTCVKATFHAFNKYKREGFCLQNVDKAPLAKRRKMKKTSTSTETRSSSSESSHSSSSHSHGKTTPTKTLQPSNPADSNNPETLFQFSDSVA

[25] = target: 5-hydroxytryptamine receptor 2C (Homo sapiens) (UniProt P28335); conditions: Compound concentration 10.0 uM
Sequence of 5-hydroxytryptamine receptor 2C (Homo sapiens) (P28335 whole entry): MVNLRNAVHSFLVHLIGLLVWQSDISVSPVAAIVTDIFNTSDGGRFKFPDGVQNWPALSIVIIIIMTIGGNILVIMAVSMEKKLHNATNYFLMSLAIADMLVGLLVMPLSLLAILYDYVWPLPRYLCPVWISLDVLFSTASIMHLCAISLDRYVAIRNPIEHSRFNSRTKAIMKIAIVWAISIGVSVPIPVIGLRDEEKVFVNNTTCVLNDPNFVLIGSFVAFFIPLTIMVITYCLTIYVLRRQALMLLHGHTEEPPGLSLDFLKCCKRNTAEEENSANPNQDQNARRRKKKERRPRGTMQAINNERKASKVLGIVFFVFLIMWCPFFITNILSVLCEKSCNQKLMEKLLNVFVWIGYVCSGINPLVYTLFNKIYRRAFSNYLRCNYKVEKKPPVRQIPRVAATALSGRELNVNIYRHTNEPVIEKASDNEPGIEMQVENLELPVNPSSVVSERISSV

[26] = target: Ribosomal protein S6 kinase alpha-1 (Homo sapiens) (UniProt Q15418); assay: RSK1 Kinase panel; conditions: Compound concentration 1.0 uM
[27] = target: Inhibitor of nuclear factor kappa-B kinase subunit alpha (Homo sapiens) (UniProt O15111); assay: IKK_alpha Kinase panel; conditions: Compound concentration 1.0 uM
[28] = target: Myosin light chain kinase, smooth muscle (Homo sapiens) (UniProt Q15746); assay: MYLK(smMLCK) Kinase panel; conditions: Compound concentration 1.0 uM
[29] = target: Focal adhesion kinase 1 (Homo sapiens) (UniProt Q05397); assay: FAK Kinase panel; conditions: Compound concentration 1.0 uM
[30] = target: Serine/threonine-protein kinase PAK 3 (Homo sapiens) (UniProt O75914); assay: PAK3 Kinase panel; conditions: Compound concentration 1.0 uM
[31] = target: Beta-2 adrenergic receptor (Homo sapiens) (UniProt P07550); conditions: Compound concentration 10.0 uM
[32] = target: STE20-like serine/threonine-protein kinase (Homo sapiens) (UniProt Q9H2G2); assay: SLK Kinase panel; conditions: Compound concentration 1.0 uM
[33] = target: Muscarinic acetylcholine receptor M2 (Homo sapiens) (UniProt P08172); conditions: Compound concentration 10.0 uM
[34] = target: Serine/threonine-protein kinase TAO1 (Homo sapiens) (UniProt Q7L7X3); assay: (§1) TAO1 Kinase panel; conditions: Compound concentration 1.0 uM
[35] = species: Homo sapiens; assay: as §1; conditions: Compound concentration 1.0 uM
[36] = target: Dual specificity tyrosine-phosphorylation-regulated kinase 1A (Homo sapiens) (UniProt Q13627); assay: DYRK1A Kinase panel; conditions: Compound concentration 1.0 uM
[37] = target: Dual specificity tyrosine-phosphorylation-regulated kinase 3 (Homo sapiens) (UniProt O43781); assay: DYRK3 Kinase panel; conditions: Compound concentration 1.0 uM
[38] = target: Death-associated protein kinase 3 (Homo sapiens) (UniProt O43293); assay: ZIPK Kinase panel; conditions: Compound concentration 1.0 uM
[39] = target: Mitogen-activated protein kinase kinase kinase 10 (Homo sapiens) (UniProt Q02779); assay: MLK2 Kinase panel; conditions: Compound concentration 1.0 uM
[40] = target: Tyrosine-protein kinase receptor TYRO3 (Homo sapiens) (UniProt Q06418); assay: Rse Kinase panel; conditions: Compound concentration 1.0 uM
[41] = target: cGMP-dependent protein kinase 1 (Homo sapiens) (UniProt Q13976); assay: PKG1_alpha Kinase panel; conditions: Compound concentration 1.0 uM
[42] = target: Bone morphogenetic protein receptor type-1A (Homo sapiens) (UniProt P36894); assay: BMPR1A Kinase panel; conditions: Compound concentration 1.0 uM
[43] = target: 5-hydroxytryptamine receptor 1E (Homo sapiens) (UniProt P28566); conditions: Compound concentration 10.0 uM
[44] = target: D(3) dopamine receptor (Homo sapiens) (UniProt P35462); conditions: Compound concentration 10.0 uM
Sequence of D(3) dopamine receptor (Homo sapiens) (P35462 whole entry): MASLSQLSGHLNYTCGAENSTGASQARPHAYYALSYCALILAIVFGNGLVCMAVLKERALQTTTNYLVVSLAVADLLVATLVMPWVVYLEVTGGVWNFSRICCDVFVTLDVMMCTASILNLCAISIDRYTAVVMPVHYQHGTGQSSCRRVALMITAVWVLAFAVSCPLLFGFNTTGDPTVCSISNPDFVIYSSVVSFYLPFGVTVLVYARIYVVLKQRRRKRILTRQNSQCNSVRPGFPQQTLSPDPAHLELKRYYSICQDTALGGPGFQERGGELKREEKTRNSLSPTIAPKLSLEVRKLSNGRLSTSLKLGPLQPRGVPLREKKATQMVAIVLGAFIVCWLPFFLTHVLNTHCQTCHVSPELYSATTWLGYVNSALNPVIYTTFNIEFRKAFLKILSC

[45] = target: Serine/threonine-protein kinase PLK2 (Homo sapiens) (UniProt Q9NYY3); assay: PLK2 Kinase panel; conditions: Compound concentration 1.0 uM
[46] = target: Serine/threonine-protein kinase 26 (Homo sapiens) (UniProt Q9P289); assay: MST4 Kinase panel; conditions: Compound concentration 1.0 uM
Sequence of Serine/threonine-protein kinase 26 (Homo sapiens) (Q9P289 2-416 limits assumed): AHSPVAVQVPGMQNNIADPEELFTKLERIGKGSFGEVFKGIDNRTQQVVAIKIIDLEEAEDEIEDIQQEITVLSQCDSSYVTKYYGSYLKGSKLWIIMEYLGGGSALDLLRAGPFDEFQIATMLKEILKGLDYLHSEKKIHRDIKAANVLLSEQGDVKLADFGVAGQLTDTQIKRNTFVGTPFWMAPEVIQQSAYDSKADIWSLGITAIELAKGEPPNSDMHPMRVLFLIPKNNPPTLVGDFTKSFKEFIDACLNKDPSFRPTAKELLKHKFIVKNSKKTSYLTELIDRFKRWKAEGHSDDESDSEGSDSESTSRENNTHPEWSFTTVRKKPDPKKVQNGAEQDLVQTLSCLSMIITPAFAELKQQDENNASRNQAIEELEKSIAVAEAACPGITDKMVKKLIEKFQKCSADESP

[47] = target: Calcium/calmodulin-dependent protein kinase kinase 1 (Homo sapiens) (UniProt Q8N5S9); assay: CAMKK1 Kinase panel; conditions: Compound concentration 1.0 uM
[48] = target: Tyrosine-protein kinase ITK/TSK (Homo sapiens) (UniProt Q08881); assay: ITK Kinase panel; conditions: Compound concentration 1.0 uM
[49] = target: Insulin receptor-related protein (Homo sapiens) (UniProt P14616); assay: IRR Kinase panel; conditions: Compound concentration 1.0 uM
[50] = target: Phosphorylase b kinase gamma catalytic chain, skeletal muscle/heart isoform (Homo sapiens) (UniProt Q16816); assay: PhK_gamma1 Kinase panel; conditions: Compound concentration 1.0 uM
[51] = target: Receptor-interacting serine/threonine-protein kinase 2 (Homo sapiens) (UniProt O43353); assay: RIPK2 Kinase panel; conditions: Compound concentration 1.0 uM
[52] = target: Interleukin-1 receptor-associated kinase 4 (Homo sapiens, UniProt Q9NWZ3); assay: NanoBRET assay (IRAK4, SGC Frankfurt)
Sequence of Interleukin-1 receptor-associated kinase 4 (Q9NWZ3 whole entry): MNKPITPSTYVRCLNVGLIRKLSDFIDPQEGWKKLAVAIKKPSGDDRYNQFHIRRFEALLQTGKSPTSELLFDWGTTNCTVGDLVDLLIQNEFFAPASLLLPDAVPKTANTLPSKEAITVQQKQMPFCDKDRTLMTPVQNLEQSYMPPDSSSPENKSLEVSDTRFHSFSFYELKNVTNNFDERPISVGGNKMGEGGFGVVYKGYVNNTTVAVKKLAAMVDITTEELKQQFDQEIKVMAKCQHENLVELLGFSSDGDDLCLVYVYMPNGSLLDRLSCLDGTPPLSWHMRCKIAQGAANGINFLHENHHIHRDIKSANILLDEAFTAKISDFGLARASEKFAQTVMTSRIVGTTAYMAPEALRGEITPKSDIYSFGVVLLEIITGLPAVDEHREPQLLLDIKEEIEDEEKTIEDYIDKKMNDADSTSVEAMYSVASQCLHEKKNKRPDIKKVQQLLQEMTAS

[53] = target: Activin receptor type-1B (Homo sapiens) (UniProt P36896); assay: ACVR1B Kinase panel; conditions: Compound concentration 1.0 uM

In the case of `CC(C)(O)[C@H](F)CN1Cc2cc(NC(=O)c3cnn4cccnc34)c(N3CCOCC3)cc2C1=O`, the inhibition [1] was 5.5%, the inhibition [2] was -2% and the inhibition [3] was 5.5%. It also gave an inhibition [4] of 13.5%, an inhibition [5] of 7% and an inhibition [6] of 37.5%. For the same compound, the inhibition [7] was -2.5%, the inhibition [8] was 3.24% and the inhibition [9] was 11.5%. It also gave an inhibition [10] of 7.8%, an inhibition [11] of -0.13% and an inhibition [12] of 23.8%. It also gave an inhibition [13] of 91.4%, an inhibition [14] of 13% and an inhibition [15] of 15%. It also gave an inhibition [16] of 12.5%, an inhibition [17] of 22% and an inhibition [18] of 4%. The inhibition [19] was -2%, the inhibition [20] was 33% and the inhibition [21] was -7.43%. It also gave an inhibition [22] of -0.5%, a pIC50 [23] of 6.06 and an inhibition ([23]; Compound concentration 1.0 uM) of 80.5%. For the same compound, the inhibition [24] was -2%, the inhibition [25] was 1.26% and the inhibition [26] was 7.5%. The inhibition [27] was 8.5%, the inhibition [28] was 12% and the inhibition [29] was 19.5%. The inhibition [30] was 2%, the inhibition [31] was 3.53% and the inhibition [32] was 4%. The inhibition [33] was -9.33%, the inhibition [34] was 2% and the inhibition [35] was 2%. For the same compound, the inhibition [36] was 2%, the inhibition [37] was 2% and the inhibition [38] was 3.5%. For the same compound, the inhibition [39] was 7.5%, the inhibition [40] was 18% and the inhibition [41] was 1%. It also gave an inhibition [42] of 7%, an inhibition [43] of 1.48% and an inhibition [44] of -1.84%. The inhibition [45] was -3.5%, the inhibition [46] was 2% and the inhibition [47] was 3.5%. It also gave an inhibition [48] of 21%, an inhibition [49] of 18% and an inhibition [50] of 18.5%. The inhibition [51] was 22.5%, the EC50 [52] was 3 nM (active) and the IC50 [52] was 3.3 nM (active). The inhibition [53] was -1%.
